From US8846762B2, “Benzopyran and benzoxepin PI3K inhibitor compounds and methods of use” (Genentech, Inc., priority 2008, dated 2014)

Tests used:
pAkt (phospho-Akt) = assay: phospho AKT induction assay; format: cell-based; conditions: in each study (Example 284); cells treated with an EC80 of the compound
Description: In a 6-well tissue culture plate cells were seeded at 5×10^5 cells per well overnight. […] Determination of protein concentration was performed using the Pierce BCA Protein Assay Kit (Rockford, Ill.). Levels of pAkt (Ser^473) and total Akt were assessed using bead kits from Biosource (Carlsbad, Calif.) and the Luminex Bio-Plex system (Bio-Rad, Hercules, Calif.).

[1] = Body weight change over the course of treatment in the xenograft study, as an indicator of safety; format: in vivo, Taconic nude mice; conditions: 50 and 100 mg/kg, orally daily for 21 days

CNC(=O)c1ccc2c(c1)OCCc1cc(C(=O)N(C)c3ccc(C(=O)N(C)C)cc3Cl)sc1-2 [Compound 223, N2-(2-chloro-4-(dimethylcarbamoyl)phenyl)-N2,N8-dimethyl-4,5-dihydrobenzo[b]thieno[2,3-d]oxepine-2,8-dicarboxamide]
pAkt (phospho-Akt), a potential biomarker of PI3K signal transduction disruption (pAkt (phospho-Akt)): suppressed pAkt | body weights compared with the group administered Vehicle [1]: did not significantly differ
